# Test results: PubChem BioAssay (NCI)
#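 Results reflect a 48-hour exposure of cells in 96-well plates to compound at five concentrations. The concentration for 50% growth inhibition is given as GI50. TGI: total growth inhibition.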
# Columns and labels:
# Test in all cases: growth of human tumour cells (NCI), 48 h
# DU-145 prostate = system: DU-145 prostate
# MDA-MB-435 = system: MDA-MB-435
# MCF7 breast = system: MCF7 breast
# UACC-62 melanoma = system: UACC-62 melanoma
# RXF 393 renal = system: RXF 393 renal
# SF-268 CNS = system: SF-268 CNS
# HCT-15 colon = system: HCT-15 colon
# A549 NSCLC = system: A549 NSCLC
# HOP-62 NSCLC = system: HOP-62 NSCLC
# SW-620 colon = system: SW-620 colon
# UO-31 renal = system: UO-31 renal
# OVCAR-5 ovarian = system: OVCAR-5 ovarian
# TK-10 renal = system: TK-10 renal
# NCI-H522 lung = system: NCI-H522 lung
# HT29 colon = system: HT29 colon
# 786-0 renal = system: 786-0 renal
# HCT-116 colon = system: HCT-116 colon
# SF-295 CNS = system: SF-295 CNS
# HL-60(TB) leukemia = system: HL-60(TB) leukemia
# SNB-19 CNS = system: SNB-19 CNS
# NCI-H460 lung = system: NCI-H460 lung
# PC-3 prostate = system: PC-3 prostate
# U251 CNS = system: U251 CNS
# HCC-2998 colon = system: HCC-2998 colon
# SK-MEL-5 melanoma = system: SK-MEL-5 melanoma
# HS 578T breast = system: HS 578T breast
# SK-MEL-2 melanoma = system: SK-MEL-2 melanoma
# IGROV1 ovarian = system: IGROV1 ovarian
# KM12 colon = system: KM12 colon
# LOX IMVI melanoma = system: LOX IMVI melanoma
# MDA-MB-231 breast = system: MDA-MB-231 breast
# SR leukemia = system: SR leukemia
# HOP-92 NSCLC = system: HOP-92 NSCLC
# OVCAR-8 ovarian = system: OVCAR-8 ovarian
# SK-OV-3 ovarian = system: SK-OV-3 ovarian
# COLO 205 colon = system: COLO 205 colon
# OVCAR-4 ovarian = system: OVCAR-4 ovarian
# UACC-257 melanoma = system: UACC-257 melanoma
# SK-MEL-28 melanoma = system: SK-MEL-28 melanoma
# MALME-3M melanoma = system: MALME-3M melanoma
# ACHN renal = system: ACHN renal
# NCI-H226 lung = system: NCI-H226 lung
# BT-549 breast = system: BT-549 breast
# NCI/ADR-RES ovarian = system: NCI/ADR-RES ovarian
# RPMI-8226 leukemia = system: RPMI-8226 leukemia
# A498 renal = system: A498 renal
# SF-539 CNS = system: SF-539 CNS
# SNB-75 CNS = system: SNB-75 CNS
# M14 melanoma = system: M14 melanoma
# SN12C renal = system: SN12C renal
# EKVX NSCLC = system: EKVX NSCLC
# K-562 leukemia = system: K-562 leukemia
# CAKI-1 renal = system: CAKI-1 renal
# MOLT-4 leukemia = system: MOLT-4 leukemia
# CCRF-CEM leukemia = system: CCRF-CEM leukemia
# NCI-H23 lung = system: NCI-H23 lung
# T-47D breast = system: T-47D breast
smiles,measurement,setting,value
COc1cccc(N2CCN(C3=C(Cl)C(=O)c4ncccc4C3=O)CC2)c1,GI50,DU-145 prostate,11.1 µM
same,TGI,DU-145 prostate,23.1 µM
same,GI50,MDA-MB-435,1.79 µM
same,TGI,MDA-MB-435,3.34 µM
same,GI50,MCF7 breast,1.98 µM
same,TGI,MCF7 breast,5.86 µM
same,GI50,UACC-62 melanoma,3.48 µM
same,TGI,UACC-62 melanoma,12.3 µM
same,GI50,RXF 393 renal,1.77 µM
same,TGI,RXF 393 renal,3.25 µM
same,GI50,SF-268 CNS,13.1 µM
same,TGI,SF-268 CNS,29.6 µM
same,GI50,HCT-15 colon,2.05 µM
same,TGI,HCT-15 colon,5.6 µM
same,GI50,A549 NSCLC,15.5 µM
same,TGI,A549 NSCLC,33 µM
same,GI50,HOP-62 NSCLC,18.5 µM
same,TGI,HOP-62 NSCLC,33.2 µM
same,GI50,SW-620 colon,1.64 µM
same,TGI,SW-620 colon,3.32 µM
same,GI50,UO-31 renal,1.64 µM
same,TGI,UO-31 renal,3.4 µM
same,GI50,OVCAR-5 ovarian,15.4 µM
same,TGI,OVCAR-5 ovarian,30.3 µM
same,GI50,TK-10 renal,4.18 µM
same,TGI,TK-10 renal,13.2 µM
same,GI50,NCI-H522 lung,1.73 µM
same,TGI,NCI-H522 lung,3.39 µM
same,GI50,HT29 colon,12.2 µM
same,TGI,HT29 colon,28.6 µM
same,GI50,786-0 renal,5.02 µM
same,TGI,786-0 renal,16.3 µM
same,GI50,HCT-116 colon,1.73 µM
same,TGI,HCT-116 colon,3.18 µM
same,GI50,SF-295 CNS,12.5 µM
same,TGI,SF-295 CNS,26.2 µM
same,GI50,HL-60(TB) leukemia,1.75 µM
same,TGI,HL-60(TB) leukemia,4.47 µM
same,GI50,SNB-19 CNS,16.2 µM
same,TGI,SNB-19 CNS,32.9 µM
same,GI50,NCI-H460 lung,7.26 µM
same,TGI,NCI-H460 lung,26.7 µM
same,GI50,PC-3 prostate,8.55 µM
same,TGI,PC-3 prostate,22.3 µM
same,GI50,U251 CNS,5.46 µM
same,TGI,U251 CNS,19.5 µM
same,GI50,HCC-2998 colon,12.1 µM
same,TGI,HCC-2998 colon,25.5 µM
same,GI50,SK-MEL-5 melanoma,11.5 µM
same,TGI,SK-MEL-5 melanoma,23.8 µM
same,GI50,HS 578T breast,10 µM
same,TGI,HS 578T breast,51.5 µM
same,GI50,SK-MEL-2 melanoma,6.25 µM
same,TGI,SK-MEL-2 melanoma,19.3 µM
same,GI50,IGROV1 ovarian,2.93 µM
same,TGI,IGROV1 ovarian,9.52 µM
same,GI50,KM12 colon,20.3 µM
same,TGI,KM12 colon,41.7 µM
same,GI50,LOX IMVI melanoma,1.62 µM
same,TGI,LOX IMVI melanoma,3.12 µM
same,GI50,MDA-MB-231 breast,1.68 µM
same,TGI,MDA-MB-231 breast,3.2 µM
same,GI50,SR leukemia,1.8 µM
same,TGI,SR leukemia,5.38 µM
same,GI50,HOP-92 NSCLC,1.63 µM
same,TGI,HOP-92 NSCLC,3.07 µM
same,GI50,OVCAR-8 ovarian,2 µM
same,TGI,OVCAR-8 ovarian,5.01 µM
same,GI50,SK-OV-3 ovarian,15.4 µM
same,TGI,SK-OV-3 ovarian,46.2 µM
same,GI50,COLO 205 colon,1.87 µM
same,TGI,COLO 205 colon,4.01 µM
same,GI50,OVCAR-4 ovarian,1.73 µM
same,TGI,OVCAR-4 ovarian,3.26 µM
same,GI50,UACC-257 melanoma,2.12 µM
same,TGI,UACC-257 melanoma,5.23 µM
same,GI50,SK-MEL-28 melanoma,3.3 µM
same,TGI,SK-MEL-28 melanoma,9.58 µM
same,GI50,MALME-3M melanoma,1.84 µM
same,TGI,MALME-3M melanoma,4.06 µM
same,GI50,ACHN renal,1.76 µM
same,TGI,ACHN renal,3.19 µM
same,GI50,NCI-H226 lung,14 µM
same,TGI,NCI-H226 lung,31.9 µM
same,GI50,BT-549 breast,6.75 µM
same,TGI,BT-549 breast,18.3 µM
same,GI50,NCI/ADR-RES ovarian,3.36 µM
same,TGI,NCI/ADR-RES ovarian,15.5 µM
same,GI50,RPMI-8226 leukemia,2.27 µM
same,TGI,RPMI-8226 leukemia,5.92 µM
same,GI50,A498 renal,13.5 µM
same,TGI,A498 renal,26.4 µM
same,GI50,SF-539 CNS,11.4 µM
same,TGI,SF-539 CNS,23.6 µM
same,GI50,SNB-75 CNS,11.8 µM
same,TGI,SNB-75 CNS,24.7 µM
same,GI50,M14 melanoma,3.27 µM
same,TGI,M14 melanoma,13 µM
same,GI50,SN12C renal,5.19 µM
same,TGI,SN12C renal,20.2 µM
same,GI50,EKVX NSCLC,2.05 µM
same,TGI,EKVX NSCLC,4.42 µM
same,GI50,K-562 leukemia,2.3 µM
same,TGI,K-562 leukemia,6.28 µM
same,GI50,CAKI-1 renal,2.64 µM
same,TGI,CAKI-1 renal,8.15 µM
CCN(CC)CCN1C(=O)c2c(c3c4cc(Br)ccc4[nH]c3c3ccc4ccccc4c23)C1=O,GI50,DU-145 prostate,1.22 µM
same,TGI,DU-145 prostate,2.56 µM
same,GI50,MDA-MB-435,1.63 µM
same,TGI,MDA-MB-435,3.08 µM
same,GI50,MOLT-4 leukemia,0.215 µM
same,TGI,MOLT-4 leukemia,1.92 µM
same,GI50,MCF7 breast,0.0439 µM
same,TGI,MCF7 breast,1.64 µM
same,GI50,UACC-62 melanoma,1.64 µM
same,TGI,UACC-62 melanoma,3.5 µM
same,GI50,RXF 393 renal,1.58 µM
same,TGI,RXF 393 renal,3 µM
same,GI50,SF-268 CNS,1.52 µM
same,TGI,SF-268 CNS,3.53 µM
same,GI50,HCT-15 colon,1.4 µM
same,TGI,HCT-15 colon,3.08 µM
same,GI50,A549 NSCLC,1.43 µM
same,TGI,A549 NSCLC,2.79 µM
same,GI50,CCRF-CEM leukemia,0.186 µM
same,TGI,CCRF-CEM leukemia,1.75 µM
same,GI50,HOP-62 NSCLC,0.922 µM
same,TGI,HOP-62 NSCLC,2.25 µM
same,GI50,SW-620 colon,0.553 µM
same,TGI,SW-620 colon,2.16 µM
same,GI50,UO-31 renal,1.32 µM
same,TGI,UO-31 renal,2.62 µM
same,GI50,OVCAR-5 ovarian,1.76 µM
same,TGI,OVCAR-5 ovarian,3.23 µM
same,GI50,TK-10 renal,2.11 µM
same,TGI,TK-10 renal,3.56 µM
same,GI50,NCI-H522 lung,1.29 µM
same,TGI,NCI-H522 lung,2.67 µM
same,GI50,NCI-H23 lung,1.5 µM
same,TGI,NCI-H23 lung,3.32 µM
same,GI50,HT29 colon,1.35 µM
same,TGI,HT29 colon,2.8 µM
same,GI50,786-0 renal,1.71 µM
same,TGI,786-0 renal,3.11 µM
same,GI50,HCT-116 colon,1.25 µM
same,TGI,HCT-116 colon,2.5 µM
same,GI50,SF-295 CNS,1.61 µM
same,TGI,SF-295 CNS,3.09 µM
same,GI50,HL-60(TB) leukemia,1.58 µM
same,TGI,HL-60(TB) leukemia,3.98 µM
same,GI50,SNB-19 CNS,1.43 µM
same,TGI,SNB-19 CNS,2.84 µM
same,GI50,NCI-H460 lung,0.476 µM
same,TGI,NCI-H460 lung,1.85 µM
same,GI50,PC-3 prostate,1.31 µM
same,TGI,PC-3 prostate,2.65 µM
same,GI50,U251 CNS,1.02 µM
same,TGI,U251 CNS,2.21 µM
same,GI50,HCC-2998 colon,1.66 µM
same,TGI,HCC-2998 colon,3.43 µM
same,GI50,SK-MEL-5 melanoma,1.75 µM
same,TGI,SK-MEL-5 melanoma,3.18 µM
same,GI50,HS 578T breast,1.94 µM
same,TGI,HS 578T breast,5.02 µM
same,GI50,IGROV1 ovarian,1.27 µM
same,TGI,IGROV1 ovarian,2.82 µM
same,GI50,KM12 colon,1.71 µM
same,TGI,KM12 colon,3.5 µM
same,GI50,LOX IMVI melanoma,1.25 µM
same,TGI,LOX IMVI melanoma,3.04 µM
same,GI50,MDA-MB-231 breast,1.41 µM
same,TGI,MDA-MB-231 breast,3 µM
same,GI50,SR leukemia,0.102 µM
same,TGI,SR leukemia,0.52 µM
same,GI50,HOP-92 NSCLC,1.32 µM
same,TGI,HOP-92 NSCLC,2.71 µM
same,GI50,OVCAR-8 ovarian,1.27 µM
same,TGI,OVCAR-8 ovarian,2.66 µM
same,GI50,SK-OV-3 ovarian,1.5 µM
same,TGI,SK-OV-3 ovarian,2.9 µM
same,GI50,COLO 205 colon,1.43 µM
same,TGI,COLO 205 colon,3.13 µM
same,GI50,OVCAR-4 ovarian,1.68 µM
same,TGI,OVCAR-4 ovarian,3.22 µM
same,GI50,UACC-257 melanoma,1.64 µM
same,TGI,UACC-257 melanoma,3.01 µM
same,GI50,SK-MEL-28 melanoma,1.73 µM
same,TGI,SK-MEL-28 melanoma,3.19 µM
same,GI50,MALME-3M melanoma,1.56 µM
same,TGI,MALME-3M melanoma,3.06 µM
same,GI50,ACHN renal,1.14 µM
same,TGI,ACHN renal,2.36 µM
same,GI50,T-47D breast,0.7 µM
same,TGI,T-47D breast,2.56 µM
same,GI50,NCI-H226 lung,5.64 µM
same,TGI,NCI-H226 lung,33.7 µM
same,GI50,BT-549 breast,2.22 µM
same,TGI,BT-549 breast,4.07 µM
same,GI50,NCI/ADR-RES ovarian,1.43 µM
same,TGI,NCI/ADR-RES ovarian,4.19 µM
same,GI50,RPMI-8226 leukemia,1.21 µM
same,TGI,RPMI-8226 leukemia,3.23 µM
same,GI50,A498 renal,1.64 µM
same,TGI,A498 renal,3.29 µM
same,GI50,SF-539 CNS,1.56 µM
same,TGI,SF-539 CNS,3 µM
same,GI50,SNB-75 CNS,1.45 µM
same,TGI,SNB-75 CNS,2.84 µM
same,GI50,M14 melanoma,1.57 µM
same,TGI,M14 melanoma,2.96 µM
same,GI50,SN12C renal,1.58 µM
same,TGI,SN12C renal,3.14 µM
same,GI50,EKVX NSCLC,1.38 µM
same,TGI,EKVX NSCLC,2.92 µM
same,GI50,K-562 leukemia,0.273 µM
same,TGI,K-562 leukemia,0.905 µM
same,GI50,CAKI-1 renal,1.25 µM
same,TGI,CAKI-1 renal,2.63 µM
